Entries after “also recorded” stand apart in the source; their conditions may differ.
Columns and labels:
Assay type in all cases: cell-based, human
[1] = tested on: COX-2, EP2 and EP4 expression in HeLa cells; test: Real-time RT-PCR of COX-2, EP2 and EP4 in HeLa cells treated with seminal plasma; settings: HeLa cells co-treated with seminal plasma and inhibitor
Experimental: In sexually active women growth and invasiveness of neoplastic cervical cells may be also under the direct influence of PGE present in seminal plasma. […] The expression of COX-2, EP2 and EP4, was measured by real-time RT-PCR.

HeLa COX-1 Tet-Off cells = test: PGE2 secretion into culture medium (ELISA) after COX-1 induction; settings: 5 μg/ml arachidonic acid
Excerpt: The Tet-Off expression system we used was developed by Gossen and co-workers (38) to deliver doxycycline-regulated expression based on the high specificity of the Escherichia coli tet repressor-operator-doxycycline interaction. In the Tet-Off expression system each clonal cell line is used as its own control (cells cultured in the presence of DOX) and the overexpression of the integrated target gene is modulated solely by removing DOX from the culture medium. This eliminates the need for a control clonal cell line transfected with vector alone (as used with constitutive stable expression systems) thereby overcoming the inherent variation that arises from different sites of integration of DNA between different clones. HeLa Tet-Off cells containing the pTet-Off vector stably transfected and constitutively expressing the tetracycline-controlled transactivator tTA (composed of a fusion of the TetR and VP16 activation domain) were purchased from Clontech. The pBS(SK−)/PSHI cDNA containing the full length COX-1 gene (kindly supplied by Dr Stephen Prescott, University of Utah, Salt Lake City, Utah) was used as the template plasmid. The response plasmid pTRE2 (containing the minimal cytomegalovirus promoter containing Tet-operator sequences cloned upstream of the cDNA to be expressed) and the plasmid for antibiotic selection (pTK-hygromycin) for use with the Tet-Off system were purchased from Clontech. The COX-1 gene was excised from the template plasmid and ligated at the Bam H1 site of the pTRE2 vector. The orientation of the insert was verified by dideoxy DNA sequencing using the sequence specific primers: 5′-[…]-3′ (SEQ ID No 8) and 5′-[…]-3′ (SEQ ID No 9) (Clontech). Cells were plated in 12 well dishes in complete medium containing 10 μg/ml G418 per well and were allowed to attach and grow overnight. The pTRE2 vector containing the COX-1 gene (2 μg) was co-transfected with pTK-hygromycin (0.1 μg, which contains the hygromycin gene under control of the minimal thymidine kinase (TK) promoter) into the HeLa Tet-Off cell line at about 80% confluency using pfx-5 (Invitrogen, De Schelp, Netherlands) diluted in Optimem (Gibco). Cells were incubated for 4 hrs at 37° C. in 5% humidified CO2. Thereafter the medium was replaced with fresh complete medium containing no G418. Cells were allowed to grow for 72 hrs. Transfected cells were then seeded together with wild-type cells. Clones were selected against 200 μg/ml hygromycin in the presence of 1 μg/ml DOX. At least 50 hygromycin-resistant clones were picked using cloning cylinders. Clones were allowed to grow under continuous selection with hygromycin in the presence of DOX and then screened for the ability to express COX-1 in the presence and absence of DOX by immunoblot analysis. […]

[2] = tested on: COX-1, COX-2 and PGES expression in HeLa COX-1 Tet-Off cells; test: Western blot of COX-1, COX-2 and PGES expression after COX-1 induction; settings: for effect on COX-1-mediated up-regulation of COX-2 expression / effect on COX-1-mediated up-regulation of PGES expression / effect on COX-1 overexpression: co-treatment of cells induced for 24, 48 and 72 hrs
Excerpt: (§1) The Tet-Off expression system we used was developed by Gossen and co-workers (38) to deliver doxycycline-regulated expression based on the high specificity of the Escherichia coli tet repressor-operator-doxycycline interaction. In the Tet-Off expression system each clonal cell line is used as its own control (cells cultured in the presence of DOX) and the overexpression of the integrated target gene is modulated solely by removing DOX from the culture medium. This eliminates the need for a control clonal cell line transfected with vector alone (as used with constitutive stable expression systems) thereby overcoming the inherent variation that arises from different sites of integration of DNA between different clones. HeLa Tet-Off cells containing the pTet-Off vector stably transfected and constitutively expressing the tetracycline-controlled transactivator tTA (composed of a fusion of the TetR and VP16 activation domain) were purchased from Clontech. The pBS(SK−)/PSHI cDNA containing the full length COX-1 gene (kindly supplied by Dr Stephen Prescott, University of Utah, Salt Lake City, Utah) was used as the template plasmid. The response plasmid pTRE2 (containing the minimal cytomegalovirus promoter containing Tet-operator sequences cloned upstream of the cDNA to be expressed) and the plasmid for antibiotic selection (pTK-hygromycin) for use with the Tet-Off system were purchased from Clontech. The COX-1 gene was excised from the template plasmid and ligated at the Bam H1 site of the pTRE2 vector. The orientation of the insert was verified by dideoxy DNA sequencing using the sequence specific primers: 5′-[…]-3′ (SEQ ID No 8) and 5′-[…]-3′ (SEQ ID No 9) (Clontech). Cells were plated in 12 well dishes in complete medium containing 10 μg/ml G418 per well and were allowed to attach and grow overnight. The pTRE2 vector containing the COX-1 gene (2 μg) was co-transfected with pTK-hygromycin (0.1 μg, which contains the hygromycin gene under control of the minimal thymidine kinase (TK) promoter) into the HeLa Tet-Off cell line at about 80% confluency using pfx-5 (Invitrogen, De Schelp, Netherlands) diluted in Optimem (Gibco). Cells were incubated for 4 hrs at 37° C. in 5% humidified CO2. Thereafter the medium was replaced with fresh complete medium containing no G418. Cells were allowed to grow for 72 hrs. Transfected cells were then seeded together with wild-type cells. Clones were selected against 200 μg/ml hygromycin in the presence of 1 μg/ml DOX. At least 50 hygromycin-resistant clones were picked using cloning cylinders. Clones were allowed to grow under continuous selection with hygromycin in the presence of DOX and then screened for the ability to express COX-1 in the presence and absence of DOX by immunoblot analysis. […] Unless otherwise stated, all clones were maintained uninduced in 1 μg/ml DOX, 200 μg/ml hygromycin and 100 μg/ml G418. COX-inhibition studies were conducted by growing cells in medium containing 3 μg/ml indomethacin or 10 μM NS-398.
(§2) Cells were seeded in 5 cm dishes and allowed to attach overnight. The following day, the cells were synchronised by incubating with serum-free medium for 24 hrs. Thereafter, the medium was replaced with fresh complete medium and the cells were grown in the presence or absence of DOX for 24, 48 and 72 hrs respectively. In parallel, cells were co-treated with indomethacin or NS-398. Cells were harvested by lysing in protein lysis buffer (150 mM NaCl, 10 mM Tris-HCl pH 7.4, 1 mM EDTA, 1% Triton X-100, 0.1% SDS). The protein content in the supernatant fraction was determined as described above. The clarified cell lysates (20 μg) were denatured and electrophoresed on 4-20% Tris-Glycine gels (NOVEX, Invitrogen).

[3] = tested on: bFGF, VEGF, Ang-1 and Ang-2 expression in HeLa COX-1 Tet-Off cells; test: Western blot of angiogenic factors after COX-1 overexpression; settings: COX-1 overexpression up to 72 hrs
Excerpt: as §1, §2

[4] = tested on: EP1 receptor in COX-1 Tet-Off HeLa cells; test: Inositol phosphate accumulation (EP1 receptor activity); settings: induced expression of COX-1 and PGE2 stimulation; data not shown
Excerpt: No significant difference in basal cAMP production was detected in uninduced and induced cells (FIG. 6). […] The activity of EP1 receptor was investigated by measuring inositol phosphate accumulation (41).

[5] = tested on: EP2/EP4 receptors in cervical tissue; test: cAMP production in cervical tissues in response to exogenous PGE2 or forskolin; settings: 300 nM PGE2 or 50 μM forskolin, 5 minutes, after overnight indomethacin
Experimental: Cervical tissues (n=6 squamous carcinoma, n=1 adenocarcinoma and n=5 normal cervix) were sectioned finely, divided equally into three aliquots and incubated overnight in Dulbecco's Modified Eagle Medium (DMEM) (Sigma), containing 10% foetal calf serum, 0.3 mg/ml L-glutamine, 100 IU penicillin and 100 μg streptomycin and 3 μg/ml indomethacin. […] Tissue sections were harvested-by centrifugation at 2000 g. The supernatant was discarded and the tissue homogenised in 0.1 M HCl. cAMP concentration and protein concentrations were determined as mentioned above

[6] = tested on: cAMP-dependent PGE2-receptors in HeLa cells; test: Real-time quantitative RT-PCR of PGE2 receptors after COX-1 overexpression; settings: cells grown in medium containing indomethacin
Excerpt: The Tet-Off expression system we used was developed by Gossen and co-workers (38) to deliver doxycycline-regulated expression based on the high specificity of the Escherichia coli tet repressor-operator-doxycycline interaction. In the Tet-Off expression system each clonal cell line is used as its own control (cells cultured in the presence of DOX) and the overexpression of the integrated target gene is modulated solely by removing DOX from the culture medium. This eliminates the need for a control clonal cell line transfected with vector alone (as used with constitutive stable expression systems) thereby overcoming the inherent variation that arises from different sites of integration of DNA between different clones. HeLa Tet-Off cells containing the pTet-Off vector stably transfected and constitutively expressing the tetracycline-controlled transactivator tTA (composed of a fusion of the TetR and VP16 activation domain) were purchased from Clontech. The pBS(SK−)/PSHI cDNA containing the full length COX-1 gene (kindly supplied by Dr Stephen Prescott, University of Utah, Salt Lake City, Utah) was used as the template plasmid. […]

[7] = tested on: cAMP-linked PGE2 receptors in HeLa COX-1 Tet-Off cells; test: PGE2 stimulation and cAMP measurement in HeLa COX-1 Tet-Off cells; settings: cells grown in medium containing indomethacin, COX-1 induced 48 hrs
Experimental: Cells (2×10^5) were plated in 6 well dishes containing 4 ml/well of complete medium containing DOX. Cells were allowed to attach overnight. The following day, the cells were synchronised by incubating with fresh medium containing no foetal bovine serum for 24 hrs. COX-1 Tet-Off cells were induced, by DOX withdrawal from the culture medium for 48 hrs at 37° C. in humidified 5% CO2 in the presence or absence of indomethacin. In parallel, control uninduced cells were supplemented daily with DOX. Thereafter the culture medium was removed and replaced with serum-free medium containing IBMX (Sigma) to a final concentration of 1 mM for 40 mins at 37° C. […] Following stimulation, the medium was removed and the cells lysed in 0.1M HCl. cAMP concentration was quantified by ELISA using a cAMP kit (Biomol, Affiniti, Exeter, UK) as per the manufacturer's protocol and normalised to protein concentration of the lysate. Protein concentrations were determined using protein assay kits (Bio-Rad).

[8] = tested on: cervical carcinoma tissue and normal cervix; test: Basal cAMP levels in cervical tissues cultured overnight
Experimental: Determination of Basal CAMP levels in cervical tissues. Initially, basal cAMP levels were measured in cervical tissue (n=7 squamous cell carcinomas and n=5 normal cervix; FIG. 12A). Carcinoma and normal cervical tissues were obtained on the day of surgery/biopsy, sectioned finely and divided equally into three aliquots. The tissue was transported at 4° C. and then incubated in 35 mm tissue culture dishes containing 2 ml of Dulbecco's Modified Eagle Medium (DMEM) (Sigma), containing 10% foetal calf serum, 0.3 mg/ml L-glutamine, 100 IU penicillin and 100 μg streptomycin for 1.5 hours. One aliquot of tissue was snap frozen to determine basal cAMP concentration in the tissue at the time of collection. The other two aliquots were incubated overnight at 37° C. in humidified 5% CO2 in the presence or absence of 3 μg/ml indomethacin [a dual COX enzyme inhibitor (24, 32)]. Subsequently, tissue sections were harvested by centrifugation at 2000 g. The supernatant was discarded and the tissue homogenised in 0.1 M HCl. cAMP concentration was quantified by ELISA using a cAMP kit (Biomol; Affiniti, Exeter, UK) as per the manufacturer's protocol and normalised to protein concentration of the homogenate, Protein concentrations were determined using protein assay kits (Bio-Rad, Hemel Hempstead, UK).

[9] = COX-1 induced 48 hrs with inhibitor (3 μg/ml indomethacin or 10 μM NS-398), induced without inhibitor 272.2±18.8 nM
[10] = COX-1 induced 72 hrs with inhibitor (3 μg/ml indomethacin or 10 μM NS-398), induced without inhibitor 537±22.5 nM

| Structure (SMILES) | effect on seminal plasma up-regulation of EP2/EP4 receptor expression [1] | PGE2 levels in culture medium (HeLa COX-1 Tet-Off cells; [9]) [nM] | PGE2 levels in culture medium (HeLa COX-1 Tet-Off cells; [10]) [nM] | effect on COX-1-mediated up-regulation of COX-2 expression [2] | effect on COX-1-mediated up-regulation of PGES expression [2] | effect on COX-1 overexpression [2] | effect on COX-1 associated up-regulation of Ang-1 [3] | effect on COX-1 associated up-regulation of Ang-2 [3] | effect on COX-1 associated up-regulation of bFGF [3] | further results |
| --- | --- | --- | --- | --- | --- | --- | --- | --- | --- | --- |
| O=S(=O)(NCCNC/C=C/c1ccc(Br)cc1)c1cccc2cnccc12 [H-89] | partially abolished | – | – | – | – | – | – | – | – | – |
| CS(=O)(=O)Nc1ccc([N+](=O)[O-])cc1OC1CCCCC1 [NS-398] | partially abolished | 132 ± 26.2 | 268 ± 17 | No significant change; also recorded: Partial inhibition | Partial inhibition | no alteration | partially reduced; also recorded: partially inhibited | partially reduced; also recorded: partially inhibited | partially reduced; also recorded: partially inhibited | delay of induction of PGES by COX-1 overexpression ([2]; treatment of HeLa cells with NS-398): 24 h; effect on COX-1 associated up-regulation of VEGF [3]: partially reduced; also recorded: partially inhibited |
| CCCCC[C@H](O)/C=C/[C@H]1[C@H](O)CC(=O)[C@@H]1C/C=C\CCCC(=O)O [PGE2, prostaglandin E2] | – | – | – | – | – | – | – | – | – | inositol phosphate accumulation [4]: No inositol phosphate accumulation above basal |
| C=C[C@@]1(C)CC(=O)[C@]2(O)[C@@]3(C)[C@@H](O)CCC(C)(C)[C@@H]3[C@H](O)[C@H](OC(C)=O)[C@@]2(C)O1 [forskolin] | – | – | – | – | – | – | – | – | – | fold induction of cAMP generation in cancer tissue [5]: 55.3±15.84 fold; fold induction of cAMP generation in normal cervix [5]: 9.18±1.59 fold |
| COc1ccc2c(c1)c(CC(=O)O)c(C)n2C(=O)c1ccc(Cl)cc1 [indomethacin] | abolished | 62 ± 7 | 76 ± 10.7 | inhibited; also recorded: abolished | inhibited; also recorded: abolished | no alteration | abolished | abolished | abolished | effect on COX-1 associated up-regulation of Ang-1 ([3]; listed as Indomethacin): inhibited; effect on COX-1 associated up-regulation of Ang-2 ([3]; listed as Indomethacin): inhibited; effect on COX-1 associated up-regulation of VEGF ([3]; listed as Indomethacin): inhibited; effect on COX-1 associated up-regulation of bFGF ([3]; listed as Indomethacin): inhibited; effect on COX-1 associated up-regulation of VEGF ([3]; listed as indormethacin): abolished; effect on up-regulation of the cAMP-dependent PGE2-receptors by COX-1 overexpression [6]: inhibited; effect on elevated cAMP production in COX-1 overexpressing cells in response to PGE2 [7]: abolished; cAMP concentration in carcinoma tissue ([8]; overnight culture in presence of indomethacin, without indomethacin 64.2±5.1): 2.59±0.64 pmol cAMP/mg protein; cAMP concentration in normal cervical tissue ([8]; overnight incubation in presence of indomethacin, without indomethacin 11.96±1.35): 4.0±0.7 pmol cAMP/mg protein |

— patent US20030220266A1, “Method of treating a disease” (priority 2001, published 2003)
